Read-outs that look alike come from different tables or passages of the source.
Key:
podocalyxin = test: Podocalyxin immunohistochemistry of kidney sections (podocyte integrity) in db/db mice; type: in vivo; conditions: 12 weeks, semi-quantitative score 0-3, p<0.05 vs diabetic mice
Description: The expression of podocalyxin is analysed by immunohistochemistry using a podocalyxin specific antibody. Kidney sections from male diabetic db/db mice (10 weeks old at start and treated for 3 months) in the following groups are analysed:
All of the evaluations of the glomerular staining intensities are done semi-quantitatively by two different experts of kidney pathology blinded for the slides.
The predefined scoring gradient is 0, 1, 2, and 3.0 means no expression, whereas 3 is given when expression is highest. Group means are compared with a non-parametric test. P values less than 0.05 are considered significant.
(§1) Diabetic nephropathy is the main cause of end-stage renal disease. […] Heterozygous db/+ mice treated with vehicle were used as controls (n=8). Levels of glucose, triglycerides, insulin, cystatin C and creatinine were analysed in serum and urine samples at baseline and monthly thereafter. Body weight, urinary albumin excretion and OGTT were monitored periodically.
(§2) Renal histology (glomerulosclerosis, tubulointerstitial fibrosis) and expression of the sialoglycoprotein podocalyxin (a marker of podocyte integrity in the glomeruli, marker for glomerular damage), glucagon-like peptide 1 receptor (GLP-1R), alpha-smooth muscle actin and type I collagen were evaluated at the end of the study.

male diabetic db/db mice = test: Diabetic nephropathy study in db/db mice (serum/urine parameters, renal histology); type: in vivo; conditions: for glomerular mesangial matrix expansion (histology) / tubulointerstitial fibrosis (histology): compared with diabetic vehicle; for effects on fasted or post-prandial glucose levels: db/db mice, 12 weeks treatment, linagliptin 3 mg/kg/day, enalapril 20 mg/kg/day
Description: as §1, §2

[1] = Pooled analysis of four 24-week placebo-controlled trials: albuminuria in T2D patients with early diabetic nephropathy on stable ACE/ARB (set 1); type: in vivo, human; conditions: 5 mg qd, 24 weeks
Excerpt: Despite optimal therapy, people with type 2 diabetes (T2D) remain at high risk for kidney damage, manifest as abuminuria, and many develop progressive renal failure. Further, despite optimal therapy with inhibitors of the renin-angiotensin-aldosterone system (RAAS), patients with type 2 diabetes mellitus (T2DM) remain at an increased risk of progressive renal failure and cardiovascular disease, for which abuminuria has emerged as a predictive biomarker. […] Participants were included in this analysis if they had: i) 30≦UACR≦3000 mg/g creatinine; ii) stable treatment with ACE/ARBs ≧4 weeks prior and during the trial; and iii) eGFR >30 ml/min/1.73 m^2. The endpoint was the percentage change in geometric mean UACR. […] After 24 weeks, placebo-corrected changes in A1C and FPG were −0.71% and −26 mg/dl, respectively (both p<0.0001). […] This protective effect may be independent of race.
(§3) The endpoint in both sets was the percentage change in geometric mean UACR after 24 weeks.

[2] = Meta-analysis of renal safety/outcomes in 13 phase 3 placebo-controlled trials, 5466 T2D patients
Description: The aim of this study was to evaluate renal safety/outcomes with linagliptin in phase 3, randomized, double-blind, placebo-controlled trials (≧12 wks).

[3] = system: glucagon-like peptide 1 receptor (GLP-1R); test: GLP-1R immunohistochemical staining of kidney sections in db/db mice; type: in vivo; conditions: P<0.05 vs vehicle-treated db/db mice
Description: as §1, §2

[4] = for feτ, s: steady state (Day 12), gMean
[5] = Pooled analysis of seven placebo-controlled trials: albuminuria in elderly T2D patients with diabetic nephropathy (set 2); type: in vivo, human; conditions: 5 mg q.d., 24 weeks, set 2, aged ≧65 years
Excerpt: as §3

[6] = linagliptin compared with enalapril, p<0.05

feτ, s ([4]; 1 mg once daily oral) [%] | feτ, s ([4]; 2.5 mg once daily oral) [%] | feτ, s ([4]; 5 mg once daily oral) [%] | feτ, s ([4]; 10 mg once daily oral) [%] | excreted via the kidney ([4]; therapeutic oral dose levels, of the administered oral dose) [%] | SMILES | podocalyxin expression (glomerular staining score) (podocalyxin) | glomerular mesangial matrix expansion (histology) (male diabetic db/db mice; p<0.05) | tubulointerstitial fibrosis (histology) (male diabetic db/db mice; p<0.05) | effects on fasted or post-prandial glucose levels (male diabetic db/db mice) | UACR between group difference vs placebo ([1]; set 1) [%] | lowering of adjusted UACR (percentage change in geometric mean) ([1]; set 1, on stable ACE/ARB) [%] | patients with composite renal endpoint events ([2]; linagliptin 5 mg qd, n=3505) [%] | patients with composite renal endpoint events (number) ([2]; linagliptin 5 mg qd, n=3505) | HR for the composite endpoint vs placebo ([2]; patients <65 yrs) | HR for the composite endpoint vs placebo ([2]; patients >65 yrs) | expression of GLP-1R in the glomeruli [3] | route of excretion ([4]; human, in vivo) | tubulointerstitial fibrosis (male diabetic db/db mice; [6]) | urinary albumin excretion rates (male diabetic db/db mice; [6]) | UACR reduction versus placebo (trend) [5] [%]
 |  |  |  |  | CCOC(=O)[C@H](CCc1ccccc1)N[C@@H](C)C(=O)N1CCC[C@H]1C(=O)O [enalapril, reference compound] | 2.4±0.2 | reduced almost to control levels | reduced almost to control levels | limited effects |  |  |  |  |  |  |  |  |  |  | 
3.34 | 3.06 | 6.27 | 3.22 | < 7 | CC#CCn1c(N2CCC[C@@H](N)C2)nc2c1c(=O)n(Cc1nc(C)c3ccccc3n1)c(=O)n2C [linagliptin] | 2.3±0.2 | reduced almost to control levels | reduced almost to control levels | limited effects | −29 | 33 | 12.8 | 448 | 0.77 | 1.04 | 1.90±0.04 | primarily excreted unchanged via the bile | significantly decreased | significantly decreased | −25
